# Where a name gives a salt, the structure may show the parent alone.
# Tested on: H1N1 (influenza A/New Caledonia/20/99)
# Assay: Antiviral effect on A549 cells infected with H1N1
# Assay type: cell-based, H1N1 A/New Caledonia/20/99 virus
# Details: Influenza A virus, MOI 0.1, 48 h post-infection, MUNANA neuraminidase readout
# Experimental: The antiviral effect of the compounds of the invention have been tested on A549 cell lines infected with H1N1 (influenza A/New Caledonia/20/99).
# Human A549 cells (80,000 cells/well in a 96 well plate) were treated with a range of concentration of test compounds and immediately infected by H1N1 A/New Caledonia/20/99 virus (clinical isolate) at MOI of 0.1 in DMEM/1% Penicillin/streptomycin supplemented with […] TPCK trypsin (Sigma) and incubated at 37° C. in 5% CO2. 48 h post-infection, supernatants (25 μl) were collected and transferred into a 96-well black flat-bottom plate, mixed with 25 μl PBS with Ca++/Mg++ (Thermo Fisher) and 50 μl of 2′-(4-Methylumbelliferyl)-ax-D-N-acetylneuraminic acid sodium salt hydrate stock-solution (20 μM, MUNANA, Sigma). Plates were incubated 1h at 37° C. and reaction is stopped by adding 100 μl of Stop Solution (glycine 0.1 M pH10.7/25% ethanol). The amount of fluorescent product released by MUNANA hydrolysis (4-MU) was measured in a Tecan spectrophotometer with excitation and emission wavelengths of 365 and 450 nm respectively.
row,Structure (SMILES),IC50 [nM]
1,"O=C(Nc1scc(C2CCCC2)c1C(=O)O)c1cccc(N2CCOCC2)c1 [Compound #71, 4-Cyclopentyl-2-[(3-morpholinobenzoyl)amino]thiophene-3-carboxylic acid]",130
2,"O=C(Nc1scc(C2COc3ccccc3C2)c1C(=O)O)c1ccccc1 (stereo not drawn) [Compound #84, 2-Benzamido-4-chroman-3-yl-thiophene-3-carboxylic acid]",287
3,"O=C(Nc1scc(C2CCc3ccccc3O2)c1C(=O)O)c1ccccc1 (stereo not drawn) [Compound #85, 2-Benzamido-4-chroman-2-yl-thiophene-3-carboxylic acid]",506
4,"O=C(Nc1scc(C2CC2)c1C(=O)O)c1ccccc1 [Compound #87, 2-Benzamido-4-cyclopropyl-thiophene-3-carboxylic acid]",810
5,"COC1CN(c2ccc(C(=O)Nc3scc(C4CC4)c3C(=O)O)cc2)C1 [Compound #88, 4-Cyclopropyl-2-[[4-(3-methoxyazetidin-1-yl)benzoyl]amino]thiophene-3-carboxylic acid]",500
6,"O=C(Nc1scc(C2CC2)c1C(=O)O)c1ccc(NCC2CCOCC2)cc1 [Compound #90, 4-Cyclopropyl-2-[[4-(tetrahydropyran-4-ylmethylamino)benzoyl]amino]thiophene-3-carboxylic acid]",240
7,"CC(C)(C)c1csc(NC(=O)c2ccc(NCC3CCOCC3)cc2)c1C(=O)O [Compound #91, 4-Tert-butyl-2-[[4-(tetrahydropyran-4-ylmethylamino)benzoyl]amino]thiophene-3-carboxylic acid]",120
8,"COC1CN(c2ccc(C(=O)Nc3scc(C(C)(C)C)c3C(=O)O)cc2)C1 [Compound #92, 4-tert-Butyl-2-[[4-(3-methoxyazetidin-1-yl)benzoyl]amino]thiophene-3-carboxylic acid]",260
9,"COCCOc1ccc(C(=O)Nc2scc(C3COc4ccccc4C3)c2C(=O)O)cc1 (stereo not drawn) [Compound #95, 4-Chroman-3-yl-2-[[4-(2-methoxyethoxy)benzoyl]amino]thiophene-3-carboxylic acid]",610
10,"CC(C)Cc1csc(NC(=O)c2ccccc2)c1C(=O)O [Compound #96, 2-Benzamido-4-isobutyl-thiophene-3-carboxylic acid]",610
11,"COC1CN(c2ccc(C(=O)Nc3scc(C4CCC4)c3C(=O)O)cc2)C1 [Compound #97, 4-Cyclobutyl-2-[[4-(3-methoxyazetidin-1-yl)benzoyl]amino]thiophene-3-carboxylic acid]",110
12,"O=C(Nc1scc(C2CCC2)c1C(=O)O)c1ccccc1 [Compound #98, 2-Benzamido-4-cyclobutyl-thiophene-3-carboxylic acid]",610
13,"O=C(Nc1scc(C2CCC2)c1C(=O)O)c1ccc(NCC2CCOCC2)cc1 [Compound #99, 4-Cyclobutyl-2-[[4-(tetrahydropyran-4-ylmethylamino)benzoyl]amino]thiophene-3-carboxylic acid]",14
14,"COC1CN(c2ccc(C(=O)Nc3sc(C)c(C)c3C(=O)O)cc2)C1 [Compound #100, 2-[[4-(3-Methoxyazetidin-1-yl)benzoyl]amino]-4,5-dimethyl-thiophene-3-carboxylic acid]",44.5
15,"Cc1sc(NC(=O)c2ccc(NCC3CCOCC3)cc2)c(C(=O)O)c1C [Compound #102, 4,5-Dimethyl-2-[[4-(tetrahydropyran-4-ylmethylamino)benzoyl]amino]thiophene-3-carboxylic acid]",820
16,"COCCNc1ccc(C(=O)Nc2scc(C(C)(C)C)c2C(=O)O)cc1 [Compound #103, 4-tert-Butyl-2-[[4-(2-methoxyethylamino)benzoyl]amino]thiophene-3-carboxylic acid]",460
17,"CCOC1CN(c2ccc(C(=O)Nc3scc(C(C)(C)C)c3C(=O)O)cc2)C1 [Compound #104, 4-tert-Butyl-2-[[4-(3-ethoxyazetidin-1-yl)benzoyl]amino]thiophene-3-carboxylic acid]",240

row,Structure (SMILES),IC50 [nM]
1,"CC(C)(C)c1csc(NC(=O)c2ccc(NC3CCOCC3)cc2)c1C(=O)O [Compound #105, 4-tert-Butyl-2-[[4-(tetrahydropyran-4-ylamino)benzoyl]amino]thiophene-3-carboxylic acid]",680
2,"O=C(Nc1scc(C2CC(F)(F)C2)c1C(=O)O)c1ccc(NCC2CCOCC2)cc1 [Compound #106, 4-(3,3-Difluorocyclobutyl)-2-[[4-(tetrahydropyran-4-ylmethylamino)benzoyl]amino]thiophene-3-carboxylic acid]",350
3,"COC1CN(c2ccc(C(=O)Nc3scc(C4CC(F)(F)C4)c3C(=O)O)cc2)C1 [Compound #107, 4-(3,3-Difluorocyclobutyl)-2-[[4-(3-methoxyazetidin-1-yl)benzoyl]amino]thiophene-3-carboxylic acid]",460
4,"COCCNc1ccc(C(=O)Nc2scc(C3(C)CC3)c2C(=O)O)cc1 [Compound #108, 2-[[4-(2-Methoxyethylamino)benzoyl]amino]-4-(1-methylcyclopropyl)thiophene-3-carboxylic acid]",560
5,"COC1CN(c2ccc(C(=O)Nc3scc(CC(C)C)c3C(=O)O)cc2)C1 [Compound #109, 4-iso-Butyl-2-[[4-(3-methoxyazetidin-1-yl)benzoyl]amino]thiophene-3-carboxylic acid diethylamine salt]",200
6,"CC(C)(C)c1csc(NC(=O)c2cccc(NCC3CCOCC3)c2)c1C(=O)O [Compound #110, 4-tert-Butyl-2-[[3-(tetrahydropyran-4-ylmethylamino)benzoyl]amino]thiophene-3-carboxylic acid]",820
7,"COC1CN(c2ccc(C(=O)Nc3scc(C4(C)CC4)c3C(=O)O)cc2)C1 [Compound #112, 2-[[4-(3-Methoxyazetidin-1-yl)benzoyl]amino]-4-(1-methylcyclopropyl) thiophene-3-carboxylic acid]",380
8,"CC(C)Cc1csc(NC(=O)c2ccc(NCC3CCOCC3)cc2)c1C(=O)O [Compound #113, 4-Isobutyl-2-[[4-(tetrahydropyran-4-ylmethylamino)benzoyl]amino]thiophene-3-carboxylic acid]",120
9,"COC1CN(c2ccc(C(=O)Nc3sc(C(C)C)c(C)c3C(=O)O)cc2)C1 [Compound #114, 5-Isopropyl-2-[[4-(3-methoxyazetidin-1-yl)benzoyl]amino]-4-methyl-thiophene-3-carboxylic acid diethylamine salt]",510
10,"COC1CN(c2ccc(C(=O)Nc3scc(C4(C)CCC4)c3C(=O)O)cc2)C1 [Compound #115, 2-[[4-(3-Methoxyazetidin-1-yl)benzoyl]amino]-4-(1-methylcyclobutyl) thiophene-3-carboxylic acid]",240
11,"COCCOc1ccc(C(=O)Nc2scc(C(C)(C)C)c2C(=O)O)cc1 [Compound #116, 4-tert-Butyl-2-[[4-(2-methoxyethoxy)benzoyl]amino]thiophene-3-carboxylic acid]",10
12,"COCCN(C)c1ccc(C(=O)Nc2scc(C(C)(C)C)c2C(=O)O)cc1 [Compound #117, 4-tert-Butyl-2-[[4-[2-methoxyethyl(methyl)amino]benzoyl]amino]thiophene-3-carboxylic acid]",76
13,"CC(C)(C)c1csc(NC(=O)c2ccc(NC3CCCOC3)cc2)c1C(=O)O (stereo not drawn) [Compound #118, 4-tert-Butyl-2-[[4-(tetrahydropyran-3-ylamino)benzoyl]amino]thiophene-3-carboxylic acid]",200
14,"CC(C)(C)c1csc(NC(=O)c2ccc(NCC3CCCOC3)cc2)c1C(=O)O (stereo not drawn) [Compound #119, 4-tert-Butyl-2-[[4-(tetrahydropyran-3-ylmethylamino)benzoyl]amino]thiophene-3-carboxylic acid]",100
15,"CN(CC1CCOCC1)c1ccc(C(=O)Nc2scc(C(C)(C)C)c2C(=O)O)cc1 [Compound #120, 4-tert-Butyl-2-[[4-[methyl(tetrahydropyran-4-ylmethyl)amino]benzoyl]amino]thiophene-3-carboxylic acid]",100
16,"COC1CN(c2ccc(C(=O)Nc3scc(C(C)(C)C)c3C(=O)O)c(F)c2)C1 [Compound #121, 4-tert-Butyl-2-[[2-fluoro-4-(3-methoxyazetidin-1-yl)benzoyl]amino]thiophene-3-carboxylicacid]",510
